In ChEMBL document CHEMBL4673317, “Linearolactone and Kaempferol Disrupt the Actin Cytoskeleton in Entamoeba histolytica: Inhibition of Amoebic Liver Abscess Development” (J Nat Prod, 2020):
Calls of active or inactive are those of the source. The calls are words filed in the database; no cut-off is given here.

Columns and labels:
Entamoeba histolytica [1] = test: Induction of apoptosis in Entamoeba histolytica […] trophozoites assessed as early apoptotic cells at IC50 concentration after 48 hrs by annexin-V-FITC/propidium iodide staining based flow cytometric analysis (reference value: 0.9%); assay type: functional, HM-1:IMSS
Entamoeba histolytica [2] = test: Induction of ROS generation in Entamoeba histolytica […] trophozoites at IC50 concentration incubated for 1 hr in presence of trolox by DCFDA staining based assay relative to control; assay type: functional, HM-1:IMSS
Entamoeba histolytica [3] = test: Antimicrobial activity against Entamoeba histolytica […] trophozoites infected in Syrian hamster assessed as blood ureic nitrogen level at 0.1 mg/kg, ip at 4 days post infection and measured on day 8 (reference value: […]); assay type: functional, HM-1:IMSS; details: time 4 day
Entamoeba histolytica [4] = test: Antimicrobial activity against Entamoeba histolytica […] trophozoites infected in Syrian hamster assessed as glucose level at 0.1 mg/kg, ip at 4 days post infection and measured on day 8 (reference value: 126 +/- 18 mg/dl); assay type: functional, HM-1:IMSS; details: time 4 day
Entamoeba histolytica [5] = test: Antimicrobial activity against Entamoeba histolytica […] trophozoites infected in Syrian hamster assessed as creatinine level at 0.1 mg/kg, ip at 4 days post infection and measured on day 8 (reference value: 0.9 +/- 0.06 mg/dl); assay type: functional, HM-1:IMSS; details: time 4 day
Entamoeba histolytica [6] = test: Antimicrobial activity against Entamoeba histolytica […] trophozoites infected in Syrian hamster assessed as total bilirubin level at 0.1 mg/kg, ip at 4 days post infection and measured on day 8 (reference value: 0.8 +/- 0.2 mg/dl); assay type: functional, HM-1:IMSS; details: time 4 day
Entamoeba histolytica [7] = test: Antimicrobial activity against Entamoeba histolytica […] trophozoites assessed as decrease in granularity at IC50 concentration after 48 hrs by uranyl acetate staining based TEM analysis; assay type: functional, organism-based; details: HM-1:IMSS
Entamoeba histolytica [8] = test: Induction of apoptosis in Entamoeba histolytica […] trophozoites assessed as necrotic cells at IC50 concentration after 48 hrs by annexin-V-FITC/propidium iodide staining based flow cytometric analysis (reference value: 0.4%); assay type: functional, HM-1:IMSS
Entamoeba histolytica [9] = test: Antimicrobial activity against Entamoeba histolytica […] trophozoites infected in Syrian hamster assessed as ALT level at 0.1 mg/kg, ip at 4 days post infection and measured on day 8 (reference value: 276 +/- 24 U/L); assay type: functional, HM-1:IMSS; details: time 4 day
BEAS-2B = test: Cytotoxicity against human BEAS-2B cells assessed as reduction in cell viability after 24 hrs by MTT assay; assay type: cell-based
Entamoeba histolytica [10] = test: Antimicrobial activity against Entamoeba histolytica […] trophozoites infected in Syrian hamster assessed as urea level at 0.1 mg/kg, ip at 4 days post infection and measured on day 8 (reference value: 14 +/- 1 mg/dl); assay type: functional, HM-1:IMSS; details: time 4 day
Entamoeba histolytica [11] = test: Antimicrobial activity against Entamoeba histolytica […] trophozoites infected in Syrian hamster assessed as platelets at 0.1 mg/kg, ip at 4 days post infection and measured on day 8 (reference value: 439 +/- 108 […]); assay type: functional, HM-1:IMSS; details: time 4 day
Entamoeba histolytica [12] = test: Antimicrobial activity against Entamoeba histolytica […] trophozoites infected in Syrian hamster assessed as triglycerides level at 0.1 mg/kg, ip at 4 days post infection and measured on day 8 (reference value: 395 +/- 41 mg/dl); assay type: functional, HM-1:IMSS; details: time 4 day
Entamoeba histolytica [13] = test: Antimicrobial activity against Entamoeba histolytica […] trophozoites assessed as abnormal condensation of chromatin at IC50 concentration after 48 hrs by uranyl acetate staining based TEM analysis; assay type: functional, organism-based; details: HM-1:IMSS
CHO-K1 = test: Cytotoxicity against CHO-K1 cells assessed as reduction in cell viability after 24 hrs by MTT assay; assay type: cell-based; details: Cricetulus griseus, CHO-K1, 24 h
Entamoeba histolytica [14] = test: Induction of ROS generation in Entamoeba histolytica […] trophozoites at IC50 concentration incubated for 1 hr by DCFDA staining based assay; assay type: functional, organism-based; details: HM-1:IMSS
Entamoeba histolytica [15] = test: Binding affinity to Entamoeba histolytica […] trophozoites actin assessed as formation of pseudo-plates at IC50 concentration incubated for 1 hrs by […] staining based confocal microscopic analysis
Entamoeba histolytica [16] = test: Induction of apoptosis in Entamoeba histolytica […] trophozoites assessed as viable cells at IC50 concentration after 48 hrs by annexin-V-FITC/propidium iodide staining based flow cytometric analysis (reference value: 98%); assay type: functional, HM-1:IMSS
Entamoeba histolytica [17] = test: Antimicrobial activity against Entamoeba histolytica […] trophozoites infected in Syrian hamster assessed as ALP level at 0.1 mg/kg, ip at 4 days post infection and measured on day 8 (reference value: 638 +/- 50 U/L); assay type: functional, HM-1:IMSS; details: time 4 day
Entamoeba histolytica [18] = test: Induction of apoptosis in Entamoeba histolytica […] trophozoites assessed as late apoptotic cells at IC50 concentration after 48 hrs by annexin-V-FITC/propidium iodide staining based flow cytometric analysis (reference value: 0.7%); assay type: functional, HM-1:IMSS
Entamoeba histolytica [19] = test: Antimicrobial activity against Entamoeba histolytica […] trophozoites assessed as decrease in size of cells at IC50 concentration after 48 hrs by uranyl acetate staining based TEM analysis; assay type: functional, organism-based; details: HM-1:IMSS
Entamoeba histolytica [20] = test: Antimicrobial activity against Entamoeba histolytica HM1:MMS assessed as reduction in amoeba growth; assay type: functional, organism-based; details: HM-1:IMSS
Entamoeba histolytica [21] = test: Antimicrobial activity against Entamoeba histolytica […] trophozoites infected in Syrian hamster assessed as inhibition of amoebic liver abscess at 0.5 mg/kg, ip at 4 days post infection and measured on day 8 by NMR analysis; assay type: functional, organism-based; details: HM-1:IMSS, time 4.0 day
Entamoeba histolytica [22] = test: Antimicrobial activity against Entamoeba histolytica […] trophozoites infected in Syrian hamster assessed as total leukocytes at 0.05 mg/kg, ip at 4 days post infection and measured on day 8 (reference value: 18 +/- 16 […]/mm3); assay type: functional, HM-1:IMSS; details: time 4 day
Entamoeba histolytica [23] = test: Antimicrobial activity against Entamoeba histolytica […] trophozoites infected in Syrian hamster assessed as inhibition of amoebic liver abscess by measuring vascular congestion at 0.5 mg/kg, ip at 4 days post infection and measured on day 8 by H and E staining based microscopic method; assay type: functional, organism-based; details: HM-1:IMSS, time 4.0 day
Entamoeba histolytica [24] = test: Antimicrobial activity against Entamoeba histolytica […] trophozoites infected in Syrian hamster assessed as urea level at 0.05 mg/kg, ip at 4 days post infection and measured on day 8 (reference value: 14 +/- 1 mg/dl); assay type: functional, HM-1:IMSS; details: time 4 day
Entamoeba histolytica [25] = test: Antimicrobial activity against Entamoeba histolytica […] trophozoites infected in Syrian hamster assessed as total bilirubin level at 0.05 mg/kg, ip at 4 days post infection and measured on day 8 (reference value: 0.8 +/- 0.2 mg/dl); assay type: functional, HM-1:IMSS; details: time 4 day
Entamoeba histolytica [26] = test: Antimicrobial activity against Entamoeba histolytica […] trophozoites infected in Syrian hamster assessed as blood ureic nitrogen level at 0.05 mg/kg, ip at 4 days post infection and measured on day 8 (reference value: […]); assay type: functional, HM-1:IMSS; details: time 4 day
Giardia intestinalis = test: Antigiardial activity against Giardia lamblia WB infected in ig dosed CD-1 mouse assessed as reduction in parasite growth after 8 days; assay type: functional; details: Giardia duodenalis, po, 192 h, time 8 day
Entamoeba histolytica [27] = test: Antimicrobial activity against Entamoeba histolytica […] trophozoites infected in Syrian hamster assessed as creatinine level at 0.05 mg/kg, ip at 4 days post infection and measured on day 8 (reference value: 0.9 +/- 0.06 mg/dl); assay type: functional, HM-1:IMSS; details: time 4 day
Entamoeba histolytica [28] = test: Antimicrobial activity against Entamoeba histolytica […] trophozoites infected in Syrian hamster assessed as triglycerides level at 0.05 mg/kg, ip at 4 days post infection and measured on day 8 (reference value: 395 +/- 41 mg/dl); assay type: functional, HM-1:IMSS; details: time 4 day
Entamoeba histolytica [29] = test: Antimicrobial activity against Entamoeba histolytica […] trophozoites infected in Syrian hamster assessed as platelets at 0.05 mg/kg, ip at 4 days post infection and measured on day 8 (reference value: 439 +/- 108 […]); assay type: functional, HM-1:IMSS; details: time 4 day
Entamoeba histolytica [30] = test: Antimicrobial activity against Entamoeba histolytica […] trophozoites assessed as decrease in number of vacuoles at IC50 concentration after 48 hrs by uranyl acetate staining based TEM analysis; assay type: functional, organism-based; details: HM-1:IMSS
Entamoeba histolytica [31] = test: Antimicrobial activity against Entamoeba histolytica […] trophozoites infected in Syrian hamster assessed as ALT level at 0.05 mg/kg, ip at 4 days post infection and measured on day 8 (reference value: 276 +/- 24 U/L); assay type: functional, HM-1:IMSS; details: time 4 day
Entamoeba histolytica [32] = test: Antimicrobial activity against Entamoeba histolytica […] trophozoites infected in Syrian hamster assessed as glucose level at 0.05 mg/kg, ip at 4 days post infection and measured on day 8 (reference value: 126 +/- 18 mg/dl); assay type: functional, HM-1:IMSS; details: time 4 day
Entamoeba histolytica [33] = test: Antimicrobial activity against Entamoeba histolytica […] trophozoites infected in Syrian hamster assessed as inhibition of amoebic liver abscess by abundant monocytes at 0.5 mg/kg, ip at 4 days post infection and measured on day 8 by H and E staining based microscopic method; assay type: functional, organism-based; details: HM-1:IMSS, time 4.0 day
Entamoeba histolytica [34] = test: Antimicrobial activity against Entamoeba histolytica […] trophozoites infected in Syrian hamster assessed as ALP level at 0.05 mg/kg, ip at 4 days post infection and measured on day 8 (reference value: 638 +/- 50 U/L); assay type: functional, HM-1:IMSS; details: time 4 day
Entamoeba histolytica [35] = test: Antimicrobial activity against Entamoeba histolytica […] trophozoites infected in Syrian hamster assessed as inhibition of amoebic liver abscess by measuring edema at 0.5 mg/kg, ip at 4 days post infection and measured on day 8 by H and E staining based microscopic method; assay type: functional, organism-based; details: HM-1:IMSS, time 4.0 day
Entamoeba histolytica [36] = test: Binding affinity to Entamoeba histolytica […] trophozoites actin assessed as induction of polarization of polymerized actin at IC50 concentration incubated for 1 hrs by […] staining based confocal microscopic analysis

**Q.** Which Activity (Entamoeba histolytica [1]) does the source give for `Cc1ncc([N+](=O)[O-])n1CCO` [METRONIDAZOLE] here?
**A.** 5.5%

**Q.** What about the Activity (Entamoeba histolytica [2]) of the same molecule?
**A.** 49.11%

**Q.** And the Activity (Entamoeba histolytica [3])?
**A.** 19 mg/dL

**Q.** What about the Activity (Entamoeba histolytica [4]) of the same molecule?
**A.** 148 mg/dL

**Q.** And the Activity (Entamoeba histolytica [5])?
**A.** 1 mg/dL

**Q.** What about the Activity (Entamoeba histolytica [6]) of the same molecule?
**A.** 0.8 mg/dL

**Q.** What about the Activity (Entamoeba histolytica [7]) of the same molecule?
**A.** Active

**Q.** What about the Activity (Entamoeba histolytica [8]) of the same molecule?
**A.** 0.3%

**Q.** What about the Activity (Entamoeba histolytica [9]) of the same molecule?
**A.** 159 U/L

**Q.** What about the IC50 (BEAS-2B) of the same molecule?
**A.** 2240 µM

**Q.** And the Activity (Entamoeba histolytica [10])?
**A.** 41 mg/dL

**Q.** And the Activity (Entamoeba histolytica [11])?
**A.** 616 thousand/mm3

**Q.** And the Activity (Entamoeba histolytica [12])?
**A.** 335 mg/dL

**Q.** And the Activity (Entamoeba histolytica [13])?
**A.** Active

**Q.** And the IC50 (CHO-K1)?
**A.** 2920 µM

**Q.** What about the Activity (Entamoeba histolytica [14]) of the same molecule?
**A.** Active

**Q.** And the Activity (Entamoeba histolytica [15])?
**A.** Active

**Q.** And the Activity (Entamoeba histolytica [16])?
**A.** 91.3%

**Q.** And the Activity (Entamoeba histolytica [17])?
**A.** 185 U/L

**Q.** And the Activity (Entamoeba histolytica [18])?
**A.** 2.9%

**Q.** And the Activity (Entamoeba histolytica [19])?
**A.** Active

**Q.** What about the IC50 (Entamoeba histolytica [20]) of the same molecule?
**A.** 22.9 µM

**Q.** Which results are given for `O=c1c(O)c(-c2ccc(O)cc2)oc2cc(O)cc(O)c12` [KAEMPFEROL]?
**A.** Activity (Entamoeba histolytica [1]): 4.2%; inhibition (Entamoeba histolytica [21]): Active; Activity (Entamoeba histolytica [22]): 19 thousand/mm3; inhibition (Entamoeba histolytica [23]): Active; Activity (Entamoeba histolytica [2]): 33.36%; Activity (Entamoeba histolytica [24]): 42 mg/dL; Activity (Entamoeba histolytica [25]): 0.4 mg/dL; Activity (Entamoeba histolytica [26]): 19 mg/dL; Activity (Entamoeba histolytica [7]): Active; ED50 (Giardia intestinalis): 2.06 µmol/kg; Activity (Entamoeba histolytica [8]): 2.4%; IC50 (BEAS-2B): 350 µM; Activity (Entamoeba histolytica [27]): 0.5 mg/dL; Activity (Entamoeba histolytica [28]): 442 mg/dL; Activity (Entamoeba histolytica [13]): Active; IC50 (CHO-K1): 240 µM; Activity (Entamoeba histolytica [14]): Active; Activity (Entamoeba histolytica [29]): 679 thousand/mm3; Activity (Entamoeba histolytica [30]): Active; Activity (Entamoeba histolytica [16]): 87.3%; Activity (Entamoeba histolytica [31]): 55 U/L; Activity (Entamoeba histolytica [32]): 58 mg/dL; Activity (Entamoeba histolytica [18]): 6.1%; Activity (Entamoeba histolytica [19]): Active; inhibition (Entamoeba histolytica [33]): Active; Activity (Entamoeba histolytica [34]): 348 U/L; inhibition (Entamoeba histolytica [35]): Active; Activity (Entamoeba histolytica [36]): Active; IC50 (Entamoeba histolytica [20]): 0.23 µM
